The text below walks through data of US20080318961A1, “Drugs comprising chymase inhibitors and ACE inhibitors as effective ingredients” (Teijin, priority 2001, published 2008).

Structures can show the parent of a compound that is named as a salt. Where two headings read alike, the source gives them in different places. Bounds are passed on as bounds.

For data set [1], the system named is hamster myocardial infarction models. The note with it: Life Sci. 2002, Vol. 71, p. 437; cited from earlier work.
The target of the next data set is T1, human mast cell chymase (Homo sapiens, UniProt P23946).
T1 construct: made in house; host or cells: insect cells (Th5), recombinant baculovirus
T1 sequence (P23946 22-247): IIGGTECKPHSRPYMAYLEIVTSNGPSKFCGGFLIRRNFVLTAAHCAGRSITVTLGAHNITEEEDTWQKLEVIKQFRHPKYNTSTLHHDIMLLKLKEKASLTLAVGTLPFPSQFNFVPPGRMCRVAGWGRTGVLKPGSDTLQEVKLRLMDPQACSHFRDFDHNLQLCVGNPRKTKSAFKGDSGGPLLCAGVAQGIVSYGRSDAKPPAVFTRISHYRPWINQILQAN
The data set can be described thus: Recombinant human mast cell chymase enzymatic activity inhibition. It counts as biochemical. Here is the method: Specifically, Heparin Sepharose (Pharmacia) was used for purification from a culture supernatant of insect cells (Th5) infected with recombinant baculovirus containing cDNA coding for human mast cell chymase.
The time-related change in absorbance at 405 nm was measured to determine the inhibiting activity.

The next data set has as its system hamster chymase. The data set can be described thus: Accelerated vascular permeation model by intradermal injection of hamster chymase. It counts as in vivo, Syrian hamsters. The note with it: 0.1% (w/w) in feed for 5 days; Evans Blue, 30 minutes after intradermal hamster chymase. As for the experimental part: Compound No. 33 was mixed with powder feed to a content of 0.1% (w/w) to prepare a feed which was given to hamsters (Syrian hamsters, male, 7-week-old) for 5 days. Under ether anesthesia, the hamster backs were shaved and the hamster chymase was intradermally injected (hamster chymase: 1, 0.3, 0.1 μg/site; vehicle: 0.15 M NaCl, 0.1 mg/ml BSA, 10 mM Pi-Na, pH 7.0). Evans Blue (1% (w/v) solution, 5 ml/kg) was intravenously administered just prior to the intradermal injection, and the blue spots produced by chymase intradermal injection were quantified. Specifically, the hamsters were bled to death from the abdominal aorta 30 minutes after intradermal injection, and the skin was sampled using the blueing spots as an index. The sampled skin was placed in a glass test tube, the dye was extracted with 2 ml of EB extract (acetone:0.3% Na2SO4=7:3), and the dye leakage was measured by colorimetry using a spectrophotometer (620 nm).

For another data set, the target named is hamster chymase 1 (Mesocricetus auratus, UniProt O08732). In words: Chymase-inhibiting activity using hamster chymase. Type of data set: biochemical. The note with it: Compound No. 33; read-out: Inhibition constant, Hamster chymase. Here is the method: After adding 2 μl of a DMSO solution containing a compound of the invention to 50 μl of Buffer A (0.5-3.0 M NaCl, 50 mM Tris-HCl, pH 8.0) containing 1-5 ng of the active form human mast cell chymase obtained in Example 1, there was added 50 μl of Buffer A containing 0.5 mM succinyl-alanyl-histidyl-prolyl-phenylalanylparanitroanilide (Bachem) as a substrate, and reaction was conducted at room temperature for 5 minutes. The time-related change in absorbance at 405 nm was measured to determine the inhibiting activity.
hamster chymase 1, sequence (O08732 entry or part of it): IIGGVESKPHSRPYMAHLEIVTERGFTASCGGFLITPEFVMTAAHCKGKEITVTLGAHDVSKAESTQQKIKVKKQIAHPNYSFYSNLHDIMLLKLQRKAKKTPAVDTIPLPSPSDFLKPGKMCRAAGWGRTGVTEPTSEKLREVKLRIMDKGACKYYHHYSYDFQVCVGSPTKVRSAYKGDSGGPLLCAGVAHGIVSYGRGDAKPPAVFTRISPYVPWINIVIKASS
Hamster chymase was obtained from a crude product extracted from hamster tongue tissue with an acidic buffer solution and subsequently purified with a Phenyl-Sepharose column (elution: 0.15 M NaCl, 50 mM sodium phosphate, pH 6.5, 50% ethylene glycol) and a Heparin-Cellulofine column (elution: 0.5-2.0 M NaCl). The protein was identified as hamster chymase 1 based on the N-terminal amino acid sequence, and activity inhibition was measured by the same method as for the human chymase.

The next data set addresses Mouse chymase. In words: Enzyme selectivity: mouse chymase inhibition. It counts as biochemical. The settings on record: Compound No. 33; read-out: Inhibition constant, Mouse chymase.
The target of a further data set is Chymotrypsin (Bos taurus, UniProt P00766). The data set can be described thus: Enzyme selectivity: chymotrypsin inhibition. The settings on record: Compound No. 33; read-out: Inhibition constant, Chymotrypsin. It counts as biochemical.
Another data set has as its target T2, Trypsin (Bos taurus, UniProt P00760).
T2 construct: gene PRSS1
T2 sequence (P00760 24-246): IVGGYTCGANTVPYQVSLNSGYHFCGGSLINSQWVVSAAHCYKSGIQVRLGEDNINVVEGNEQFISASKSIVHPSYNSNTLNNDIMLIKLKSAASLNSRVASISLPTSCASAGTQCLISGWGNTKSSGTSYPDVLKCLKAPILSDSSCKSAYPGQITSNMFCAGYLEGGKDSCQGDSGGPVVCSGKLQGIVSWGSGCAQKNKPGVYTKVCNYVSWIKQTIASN
In words: Enzyme selectivity: trypsin inhibition. It counts as biochemical. The note with it: Compound No. 33; read-out: Inhibition constant, Trypsin.

The target of the next data set is Human tryptase (Homo sapiens, UniProt Q15661). The data set can be described thus: Enzyme selectivity: human tryptase inhibition. It counts as biochemical. The settings on record: Compound No. 33; read-out: Inhibition constant, Human tryptase.
Human tryptase, sequence (Q15661 31-275): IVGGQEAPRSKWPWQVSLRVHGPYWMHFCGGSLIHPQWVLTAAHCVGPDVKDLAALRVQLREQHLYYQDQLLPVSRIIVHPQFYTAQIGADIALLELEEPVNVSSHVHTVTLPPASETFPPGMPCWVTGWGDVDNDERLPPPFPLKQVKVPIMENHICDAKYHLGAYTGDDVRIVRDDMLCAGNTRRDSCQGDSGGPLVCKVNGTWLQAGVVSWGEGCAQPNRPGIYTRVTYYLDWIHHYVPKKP
The nature of data set [2]: Blood drug concentrations upon oral administration to hamsters. The settings on record: hamster, serum, 0.1% (w/w) in feed for 5 days, mean±S.E., N=4, read-out: hamster serum concentration of the parent drug. It counts as in vivo. As for the experimental part: The chymase inhibitor designated as Compound No. 33 was mixed with MF powder feed to a content of 0.1% (w/w) to prepare a hamster feed which was given to hamsters for 5 days. Blood was sampled from the abdominal aorta under ether anesthesia, the serum was extracted, and the serum compound concentrations were measured by high-performance liquid chromatography.

The test system of data set [3] is Human chymase-overexpressing mice (TGM). The data set can be described thus: Angiotensin-elicited blood pressure increase model using chymase-overexpressing mice. Type of data set: in vivo. The note with it: continuous angiotensin I infusion; for suppression of vasopressor effect (blood pressure): compared to control group, combination normal from 10th day, P<0.05. Here is the method: Human chymase-overexpressing mice (hereinafter abbreviated as “TGM”) created by introduction of the human chymase gene with an angiotensin II-producing function were used as the model animals. Specifically, 8- to 10-week-old TGM mice were used, and angiotensin I was continuously infused with a microosmostic pump embedded under the mouse skin (70 μg/kg/min) to create continuous hypertensive mouse models. The continuous infusion of angiotensin I was confirmed to elicit a vasopressor response of about 30 mmHg in the TGM (n=6) with respect to the wild type (n=8), while depressor action was examined in groups administered a chymase inhibitor (Compound No. 33, 0.1% diet, n=7), an ACE inhibitor (temocapril hydrochloride, 2.0 mg/kg/day, n=6), an angiotensin receptor blocker (ARB) (Valsartan, 14 mg/kg/day, n=7) and a chymase inhibitor and ACE inhibitor simultaneously (Compound No. 33, 0.1% diet, and temocapril hydrochloride, 2.0 mg/kg/day, n=6). The letter “n” indicates the number of individuals. […] […].

Data set [4] deals with canine myocardial infarction models. The note with it: 75th Annual Meeting of the Japanese Pharmacological Society; cited from earlier work.
For the next data set, the system named is chymase. The note with it: WO00/51640, J. Med. Chem., 2001, Vol. 44, p. 1286; cited from earlier work.
Where [5] appears, read: stated in parentheses for Compounds A and B, read-out: human chymase IC50 (reference compounds).
Where [6] appears, read: recombinant active form human mast cell chymase, room temperature 5 minutes, absorbance 405 nm, read-out: IC50, human mast cell chymase inhibiting activity.

For the compound `CCOc1ccccc1CC1C(=O)N(C(=O)NC(c2ccc(C)cc2)c2ccc(C)cc2)C1Oc1ccc(C(=O)O)cc1` (stereo not shown) [4-[1-{[bis(4-methylphenyl)methyl]carbamoyl}-3-(2-ethoxybenzyl)-4-oxoazetidin-2-yloyl]benzoic acid], the “effect when administered alone to hamster myocardial infarction models” value in [1] was “exhibit an effect”.

`O=C1CN(c2ccc(Cl)cc2)C(=O)N1S(=O)(=O)c1ccc(Cl)cc1` [Compound A, reference compound]: the IC50 – broadly, the point on the concentration scale where inhibition reaches its midpoint – at human mast cell chymase (setting [5]) turned out to be 9 nM. Moreover, in the data set with hamster chymase, the “dye leakage (accelerated vascular permeation)” value (“dye leakage” for short) is listed as “no clear suppressing action”.

In the case of `[O-][S+](Cc1ccc(Cl)cc1)c1nnc(OCc2ccc(Cl)cc2)c2nccn12` (stereo not shown) [Compound B, reference compound], the half-inhibitory concentration (IC50) at human mast cell chymase (setting [5]) came out at 30 nM. The “dye leakage” value with hamster chymase is listed as “no clear suppressing action”.

Take `O=C(O)CCCSc1nc2ccccc2n1Cc1cccc2ccccc12` [Compound No. 33]: the Ki on human mast cell chymase (Compound No. 33, read-out: Inhibition constant, Human chymase) is 6.2 ± 2.2 nM; on hamster chymase 1 it was 30.6 ± 3.8 nM; on Mouse chymase it was 73.4 ± 24.2 nM; at Chymotrypsin it was > 10 µM; at Trypsin, > 10 µM; on Human tryptase, > 10 µM. In addition, the concentration for half-maximal inhibition (IC50) at human mast cell chymase (setting [6]) is 10 to 100 nM. Besides, the concentration at 5 days in data set [2] amounted to 7.89 ± 1.09 µM. The “dye leakage” value with hamster chymase is given as “decrease in dye leakage”. Also, the “suppression of cardiac hypertrophy” value in data set [3] is recorded as “no notable suppression”. The “suppression of vasopressor effect (blood pressure)” value in [3] is reported as “no notable suppression”.

As for `CCCCC(=O)N(Cc1ccc(-c2ccccc2-c2nnn[nH]2)cc1)[C@H](C(=O)O)C(C)C` [Valsartan], the “suppression of cardiac hypertrophy” value in [3] was “no notable suppression”.

For the compound `Cc1ccc2c(c1)c(Cn1c(SCCCC(=O)O)nc3ccccc31)cn2C` [compound 6], on human mast cell chymase (setting [6]), the concentration for half-maximal inhibition (IC50) fell in the range of 10 to 100 nM.

For `Cn1cc(Cn2c(SCCCC(=O)O)nc3ccccc32)c2c(Cl)cccc21` [compound 9], at human mast cell chymase (setting [6]), the IC50 was in the range of 10 to 100 nM.

Consider `Cn1cc(Cn2c(SCCCC(=O)O)nc3ccccc32)c2c(F)cccc21` [compound 10], for which the IC50 on human mast cell chymase (setting [6]) was in the range of 10 to 100 nM.

On to `O=C(O)CCCSc1nc2ccccc2n1Cc1csc2ccccc12` [compound 20], for which the IC50 at human mast cell chymase (setting [6]) lay within 10 to 100 nM.

Turning to `O=C(O)CCCSc1nc2ccccc2n1Cc1csc2ccc(Cl)cc12` [compound 22], at human mast cell chymase (setting [6]), the IC50 is 10 to 100 nM.

As for `Cc1ccc2scc(Cn3c(SCCCC(=O)O)nc4ccccc43)c2c1` [compound 24], the half-inhibitory concentration (IC50) on human mast cell chymase (setting [6]) was in the range of 10 to 100 nM.

Turning to `O=C(O)CCCSc1nc2ccccc2n1Cc1csc2cccc(Cl)c12` [compound 27], the 50% inhibitory concentration (IC50) on human mast cell chymase (setting [6]) was in the range of 10 to 100 nM.

`Cc1cc(C)c2c(Cn3c(SCCCC(=O)O)nc4ccccc43)csc2c1` [compound 31]: the concentration for half-maximal inhibition (IC50) at human mast cell chymase (setting [6]) was in the range of 10 to 100 nM.

As to `COc1ccc2c(c1)nc(SCCCC(=O)O)n2Cc1cn(C)c2cccc(Cl)c12` [compound 45], the IC50 at human mast cell chymase (setting [6]) was in the range of 10 to 100 nM.

On to `COc1ccc2c(c1)nc(SCCCC(=O)O)n2Cc1csc2ccccc12` [compound 56], for which the IC50 at human mast cell chymase (setting [6]) was 10 to 100 nM.

In the case of `COc1ccc2c(c1)nc(SCCCC(=O)O)n2Cc1csc2cccc(C)c12` [compound 62], at human mast cell chymase (setting [6]), the half-inhibitory concentration (IC50) was 10 to 100 nM.

Take `N#Cc1ccc2c(c1)nc(SCCCC(=O)O)n2Cc1csc2ccccc12` [compound 92]: the half-maximal inhibitory concentration (IC50) on human mast cell chymase (setting [6]) lay within 10 to 100 nM.

`Cc1ccc2c(c1)nc(SCCCC(=O)O)n2Cc1csc2ccccc12` [compound 128]: at human mast cell chymase (setting [6]), the IC50 lay in the range of 10 to 100 nM.

Consider `Cc1cc2nc(SCCCC(=O)O)n(Cc3cn(C)c4ccccc34)c2cc1C` [compound 182], for which, at human mast cell chymase (setting [6]), the IC50 is 10 to 100 nM.

Turning to `Cc1cc2nc(SCCCC(=O)O)n(Cc3cn(C)c4cccc(C)c34)c2cc1C` [compound 187], the IC50 on human mast cell chymase (setting [6]) lay in the range of 10 to 100 nM.

On to `Cc1cc2nc(SCCCC(=O)O)n(Cc3cn(C)c4cccc(Cl)c34)c2cc1C` [compound 189], for which the half-inhibitory concentration (IC50) at human mast cell chymase (setting [6]) was 10 to 100 nM.

With `Cc1cc2nc(SCCCC(=O)O)n(Cc3csc4ccccc34)c2cc1C` [compound 200], the concentration for half-maximal inhibition (IC50) at human mast cell chymase (setting [6]) was 10 to 100 nM.

For the compound `Cc1cc2nc(SCCCC(=O)O)n(Cc3csc4ccc(Cl)cc34)c2cc1C` [compound 202], the IC50 at human mast cell chymase (setting [6]) was 10 to 100 nM.

Regarding `Cc1ccc2scc(Cn3c(SCCCC(=O)O)nc4cc(C)c(C)cc43)c2c1` [compound 204], the IC50 on human mast cell chymase (setting [6]) lay in the range of 10 to 100 nM.

With `Cc1cc2nc(SCCCC(=O)O)n(Cc3csc4cccc(C)c34)c2cc1C` [compound 206], the half-maximal inhibitory concentration (IC50) on human mast cell chymase (setting [6]) fell in the range of 10 to 100 nM.

`COc1ccc2nc(SCCCC(=O)O)n(Cc3csc4ccc(C)cc34)c2c1` [compound 240]: the IC50 at human mast cell chymase (setting [6]) lay in the range of 10 to 100 nM.

In the case of `COc1ccc2nc(SCCCC(=O)O)n(Cc3csc4cccc(C)c34)c2c1` [compound 242], on human mast cell chymase (setting [6]), the IC50 lay within 10 to 100 nM.

On to `O=CNc1cnc(-c2ccccc2)n(CC(=O)NC(Cc2ccccc2)C(=O)C(=O)CCCOc2ccccn2)c1=O` (stereo not shown) [formula (III-I)], for which, in data set [4], the “efficacy when orally administered to canine myocardial infarction models” value is “efficacious”.

Consider `COC(=O)c1ccc2oc(C(=O)C(Cc3ccccc3)NC(=O)Cn3c(-c4ccccc4OC)ncc(N)c3=O)nc2c1` (stereo not shown) [formula (IV-I)], for which the “chymase inhibiting activity by oral administration to mouse allergy models” value in the data set on chymase is on record as “exhibit chymase inhibiting activity”.

For `CCOC(=O)[C@H](CCc1ccccc1)N[C@H]1CS[C@H](c2cccs2)CN(CC(=O)O)C1=O` [temocapril hydrochloride], in data set [3], the “suppression of cardiac hypertrophy” value is reported as “no notable suppression” and the “suppression of vasopressor effect (blood pressure)” value was “no notable suppression”.
